Assay results published in patent US20140065103A1 (VERTEX PHARMACEUTICALS INCORPORATED, priority 2010, published 2014).
Like-named read-outs stand apart in the source and are kept apart here.

Assays:
[1] = test system: Huh-7 ET, Molt-4, DU-145, Hep-G2 and SH-SY5Y cells; assay: [3H]Thymidine incorporation assay (cytotoxicity, CC50); settings: [3H]thymidine incorporation; cell line not given
[2] = test system: HCV replicon (genotype 1b) in Huh7 hepatoma cell line ET; assay: microbe, parasite or virus in culture; format: cell-based, Hepatitis C virus; settings: read-out: HCV-Replicon-1b_IC50
[3] = test system: HCV sub-genomic replicon of genotype 1a in replicon cell line W11.8; assay: microbe, parasite or virus in culture; format: cell-based, Hepatitis C virus; settings: read-out: HCV-Replicon-ELISA-1a IC50
[4] = [3H]Thymidine incorporation assay (cytotoxicity, CC50); settings: human

| Compound | CC50 [1] [nM] | IC50 [2] [nM] | IC50 [3] [nM] | CC50 at 72 h [4] [nM] | IC50 ([2]; Hepatitis C virus, Huh-7, 96 h) [nM] |
| --- | --- | --- | --- | --- | --- |
| Methyl-5-(3,3-dimethylbut-1-yn-1-yl)-3-(trans-4-methyl-N-(cis-3-((dimethylamino)methyl)cyclobutyl)cyclohexanecarboxamido)thiophene-2 carboxylate [Compound 65] | 10000 to 100000 | < 100 | < 100 |  |  |
| CC(C)C#Cc1cc(N(C(=O)[C@H]2CC[C@H](C)CC2)C2CCN(C(=O)CCCCCN)CC2)c(C(=O)O)s1 [Compound 95, 3-((trans-4-Methylcyclohexanecarbonyl)-(1-(6-amino-hexanoyl)-piperidin-4-yl)amino)-5-(3-methylbut-1-ynyl)thiophene-2-carboxylic acid] |  |  |  | 10000 to 100000 | 100 to 1000 |
| CCO[C@H]1CC[C@H](N(c2cc(C#CC(C)(C)C)sc2C(=O)O)C(=O)[C@H]2CC[C@H](C)CC2)CC1 [Compound 35, 5-(3,3-Dimethylbut-1-yn-1-yl)-3-((N-4-trans-ethoxycyclohexyl)-4-trans-methylcyclohexanecarboxamido)thiophene-2-carboxylic acid] | 10000 to 100000 | < 100 | 100 to 1000 |  |  |
| CC(C)C#Cc1cc(N(C(=O)[C@H]2CC[C@H](C)CC2)[C@H]2CC[C@H](O)CC2)c(C(=O)O)s1 [Compound 4, 5-(3-methylbut-1-ynyl)-3-[(4-trans-hydroxycyclohexyl)-(4-trans-methylcyclohexanecarbonyl)amino]thiophene-2-carboxylic acid] | 10000 to 100000 | < 100 | < 100 |  |  |
| CC(C)(C)C#Cc1cc(N(C(=O)[C@H]2CC[C@H](C)CC2)[C@H]2CC[C@H](OC3CC3)CC2)c(C(=O)O)s1 [Compound 38, 5-(3,3-Dimethylbut-1-yn-1-yl)-3-((N-4-trans-cyclopropoxycyclohexyl)-4-trans-methylcyclohexanecarboxamido)thiophene-2-carboxylic acid] | 10000 to 100000 | < 100 | 100 to 1000 |  |  |
| CC(C)(C)C#Cc1cc(N(C(=O)c2ccc(Cl)cc2F)[C@H]2CC[C@H](O)CC2)c(C(=O)O)s1 [Compound 91, 3-[(4-Chloro-2-fluoro-benzoyl)-(trans-4-hydroxy-cyclohexyl)-amino]-5-(3,3-dimethyl-but-1-ynyl)-thiophene-2-carboxylic acid] |  |  |  | 10000 to 100000 | 100 to 1000 |
